Read-outs that look alike come from different tables or passages of the source.
How the values were obtained:
human recombinant HDAC1 = target: T1, human recombinant HDAC1 (Homo sapiens, UniProt Q13547); test: HDAC1 enzyme activity inhibition (HDAC Fluorimetric Drug Discovery Kit); format: biochemical; details: read-out: HDAC1
T1 construct: purchased Enzo Life Science, Inc. BML-SE456
In short: (§1)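 Compounds in 5-fold dilution series were incubated with […] enzyme and 10 μM substrate at 30° C for 60 minutes. Fluor de Lys Developer II was then added for 30 minutes to stop the reaction and develop the fluorescent signal.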

human recombinant HDAC6 = target: T2, human recombinant HDAC6 (Homo sapiens, UniProt Q9UBN7); test: HDAC6 enzyme activity inhibition (HDAC Fluorimetric Drug Discovery Kit); format: biochemical
T2 construct: purchased Calbiochem Inc. 382180
T2 sequence (Q9UBN7 1-1215): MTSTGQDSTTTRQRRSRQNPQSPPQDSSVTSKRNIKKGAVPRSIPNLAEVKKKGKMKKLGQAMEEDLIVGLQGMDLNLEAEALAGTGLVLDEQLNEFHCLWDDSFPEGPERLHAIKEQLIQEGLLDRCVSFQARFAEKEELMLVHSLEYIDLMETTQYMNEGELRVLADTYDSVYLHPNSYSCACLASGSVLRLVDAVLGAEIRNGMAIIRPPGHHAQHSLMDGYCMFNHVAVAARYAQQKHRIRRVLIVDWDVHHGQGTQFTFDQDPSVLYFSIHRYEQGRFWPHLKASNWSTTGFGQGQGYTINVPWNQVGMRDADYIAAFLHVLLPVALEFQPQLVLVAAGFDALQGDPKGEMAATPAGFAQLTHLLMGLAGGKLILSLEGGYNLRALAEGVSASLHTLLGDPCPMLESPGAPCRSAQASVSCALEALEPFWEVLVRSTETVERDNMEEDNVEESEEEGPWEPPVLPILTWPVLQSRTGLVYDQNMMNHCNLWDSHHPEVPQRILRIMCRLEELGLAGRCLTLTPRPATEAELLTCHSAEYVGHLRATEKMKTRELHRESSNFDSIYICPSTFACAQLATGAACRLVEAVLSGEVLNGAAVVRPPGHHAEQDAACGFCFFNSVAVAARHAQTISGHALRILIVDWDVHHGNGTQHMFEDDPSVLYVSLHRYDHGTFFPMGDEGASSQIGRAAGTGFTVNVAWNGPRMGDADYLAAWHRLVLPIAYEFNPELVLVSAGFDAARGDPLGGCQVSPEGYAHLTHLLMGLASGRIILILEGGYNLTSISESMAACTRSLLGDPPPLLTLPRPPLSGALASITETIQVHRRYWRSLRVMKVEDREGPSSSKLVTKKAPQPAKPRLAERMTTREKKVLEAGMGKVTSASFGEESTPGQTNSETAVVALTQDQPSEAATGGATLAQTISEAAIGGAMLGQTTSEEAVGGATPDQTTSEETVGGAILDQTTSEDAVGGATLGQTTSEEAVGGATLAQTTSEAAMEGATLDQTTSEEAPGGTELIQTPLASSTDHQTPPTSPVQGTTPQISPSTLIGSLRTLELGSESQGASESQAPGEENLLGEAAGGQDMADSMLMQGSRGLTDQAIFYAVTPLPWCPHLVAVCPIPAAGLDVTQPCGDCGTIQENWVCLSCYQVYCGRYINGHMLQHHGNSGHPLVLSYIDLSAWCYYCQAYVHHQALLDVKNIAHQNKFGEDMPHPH
In short: as §1

[1] = human recombinant HDAC1, IC50 calculated with GraphPad Prism
[2] = human recombinant HDAC6, IC50 calculated with GraphPad Prism
[3] = human recombinant HDAC1, Fluor de Lys substrate, 30° C. 60 minutes
[4] = human recombinant HDAC6, same protocol as HDAC1

T1 sequence (Q13547 whole entry): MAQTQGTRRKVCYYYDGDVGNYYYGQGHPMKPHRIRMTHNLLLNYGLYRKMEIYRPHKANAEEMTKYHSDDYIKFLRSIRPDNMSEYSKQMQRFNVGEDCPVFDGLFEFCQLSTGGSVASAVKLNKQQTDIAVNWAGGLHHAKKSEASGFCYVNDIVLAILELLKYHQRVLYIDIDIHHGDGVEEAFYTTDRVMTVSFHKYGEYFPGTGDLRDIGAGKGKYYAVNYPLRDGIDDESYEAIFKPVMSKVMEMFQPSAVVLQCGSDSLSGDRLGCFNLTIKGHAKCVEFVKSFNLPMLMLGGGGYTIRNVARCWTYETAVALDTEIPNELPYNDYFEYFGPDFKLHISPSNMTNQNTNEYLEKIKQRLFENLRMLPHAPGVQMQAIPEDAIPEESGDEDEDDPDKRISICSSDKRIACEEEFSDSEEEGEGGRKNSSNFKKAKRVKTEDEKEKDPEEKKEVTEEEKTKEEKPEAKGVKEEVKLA

SMILES	IC50 (human recombinant HDAC1; [1]) [µM]	HDAC6 selectivity (fold) (human recombinant HDAC6; HDAC1 IC50 / HDAC6 IC50)	IC50 (human recombinant HDAC6; [2]) [nM]	IC50 (human recombinant HDAC1; [3]) [µM]	HDAC6 selectivity (fold) (human recombinant HDAC6; HDAC6 over HDAC1)	IC50 (human recombinant HDAC6; [4]) [nM]
FC(F)c1nnc(-c2ccc(Cn3cc([C@@H]4CCCN4C4COC4)nn3)nc2)o1 [Compound 4026, (S)-2-(difluoromethyl)-5-(6-((4-(1-(oxetan-3-yl)pyrrolidin-2-yl)-1H-1,2,3-triazol-1-yl)methyl)pyridin-3-yl)-1,3,4-oxadiazole]	> 50	189	263	–	–	–
CN(C)CCN(C)Cc1cccc(-c2cn(Cc3ccc(-c4nnc(C(F)F)o4)cn3)nn2)c1 [Compound 3918, N1-(3-(1-((5-(5-(difluoromethyl)-1,3,4-oxadiazol-2-yl)pyridin-2-yl)methyl)-1H-1,2,3-triazol-4-yl)benzyl)-N1,N2,N2-trimethylethane-1,2-diamine]	> 50	1190	42	–	–	–
CC(C)N1CCC(c2cn(Cc3ccc(-c4nnc(C(F)F)o4)cn3)nn2)CC1 [Compound 3808, 2-(difluoromethyl)-5-(6-((4-(1-isopropylpiperidin-4-yl)-1H-1,2,3-triazol-1-yl)methyl)pyridin-3-yl)-1,3,4-oxadiazole]	> 50	143	348	–	–	–
FC(F)c1nnc(-c2ccc(Cn3cc(-c4ccc5c(CN6CCCC6)c[nH]c5c4)nn3)nc2)o1 [Compound 4493, 2-(difluoromethyl)-5-(6-((4-(3-(pyrrolidin-1-ylmethyl)-1H-indol-6-yl)-1H-1,2,3-triazol-1-yl)methyl)pyridin-3-yl)-1,3,4-oxadiazole]	> 50	7692	6.5	–	–	–
FC1CN(Cc2cccc(-c3cn(Cc4ccc(-c5nnc(C(F)F)o5)cn4)nn3)c2)C1 [Compound 3964, 2-(difluoromethyl)-5-(6-((4-(3-((3-fluoroazetidin-1-yl)methyl)phenyl)-1H-1,2,3-triazol-1-yl)methyl)pyridin-3-yl)-1,3,4-oxadiazole]	> 50	1908	26.2	–	–	–
CN1CCc2ccc(-c3cn(Cc4ccc(-c5nnc(C(F)F)o5)cc4F)nn3)cc2C1 [Compound 4363, 2-(difluoromethyl)-5-(3-fluoro-4-((4-(2-methyl-1,2,3,4-tetrahydroisoquinolin-7-yl)-1H-1,2,3-triazol-1-yl)methyl)phenyl)-1,3,4-oxadiazole]	> 50	1385	36.1	–	–	–

Other lines, results leading:

IC50 (human recombinant HDAC1; [1]) [µM]	HDAC6 selectivity (fold) (human recombinant HDAC6; HDAC1 IC50 / HDAC6 IC50)	IC50 (human recombinant HDAC6; [2]) [nM]	IC50 (human recombinant HDAC1; [3]) [µM]	HDAC6 selectivity (fold) (human recombinant HDAC6; HDAC6 over HDAC1)	IC50 (human recombinant HDAC6; [4]) [nM]	SMILES
–	–	–	> 50	2857	17.5	CN1CCN(c2cccc(-c3cn(Cc4ccc(-c5nnc(C(F)F)o5)cc4F)nn3)c2F)CC1 [Compound 4576, 2-(difluoromethyl)-5-(3-fluoro-4-((4-(2-fluoro-3-(4-methylpiperazin-1-yl)phenyl)-1H-1,2,3-triazol-1-yl)methyl)phenyl)-1,3,4-oxadiazol]
–	–	–	> 50	1184	42.2	Fc1cc(-c2nnc(C(F)F)o2)ccc1Cn1cc(-c2ccc(CN3CCCC3)nc2)nn1 [Compound 18175, 2-(difluoromethyl)-5-(3-fluoro-4-((4-(6-(pyrrolidin-1-ylmethyl)pyridin-3-yl)-1H-1,2,3-triazol-1-yl)methyl)phenyl)-1,3,4-oxadiazole]
–	–	–	> 50	738	67.7	Fc1cc(-c2nnc(C(F)F)o2)ccc1Cn1cc(-c2ccc(N3CCNCC3)cc2F)nn1 [Compound 16797, 2-(difluoromethyl)-5-(3-fluoro-4-((4-(2-fluoro-4-(piperazin-1-yl)phenyl)-1H-1,2,3-triazol-1-yl)methyl)phenyl)-1,3,4-oxadiazole]
–	–	–	> 50	986	50.7	Fc1cc(-c2nnc(C(F)F)o2)ccc1Cn1cc(-c2ccc3c(c2)CN(C2CCC2)C3)nn1 [Compound 4518, 2-(4-((4-(2-cyclobutylisoindolin-5-yl)-1H-1,2,3-triazol-1-yl)methyl)-3-fluorophenyl)-5-(difluoromethyl)-1,3,4-oxadiazole]
